One assay concerns NF-κB. The assay can be described thus: TNF-α-induced NF-κB-dependent luciferase expression in HEK cells. It is filed as cell-based. The settings on record: luciferase in HEK/NF-κB cells, as described in Example 398; for inhibition at 1 µM: Homo sapiens, HEK293, 1 uM, read-out: NFkB inhibition @ 1 uM.
The subject of a further assay is carageenan-induced edema. The assay is described as follows: Carrageenan-induced rat paw edema test (anti-inflammatory activity). It is filed as in vivo, Sprague-Dawley rats. The settings on record: rat paw edema, 50 mg/kg, reading 3 hours after carrageenan, [(Control−Test)/Control]×100%; for inhibition in vivo at 50 mg/kg: Rattus norvegicus, po, 3 h, read-out: % Protection P. In short, it runs like this: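 Edema was raised by sub-plantar injection of 1% carrageenan into the right hind paw, 1 h after dosing 18 h-fasted male/female Sprague-Dawley rats (150-250 g) with 50 mg/kg p.o. in 0.1% CMC. Swelling was measured by displacement 3 h later and expressed as % protection against saline control.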
(Carrageenan injected into the paw causes an acute inflammation.)

The test system of a further assay is AP-1. The assay can be described thus: PMA-induced AP-1 luciferase expression in HEK cells. It is filed as cell-based. The settings on record: luciferase in HEK/AP-1 cells, as described in Example 398; for inhibition at 1 µM: AP1, 1 uM.

With `CSc1ccc(-c2cc(-c3nc4ccccc4c(=O)n3-c3ccccc3C)sc2N2CCOCC2)cc1` [Example 282, 2-[4-(4-Methylsulfanylphenyl)-5-morpholin-4-yl-thiophen-2-yl]-3-0-tolyl-3H-quinazolin-4-one], the “NFkB inhibition @ 1 uM” value in the assay with NF-κB turned out to be 53. Besides, in the assay with carageenan-induced edema, the “% Protection P” value stood at 51%. For the same compound, the “AP-1 inhibition @ 1 uM” value in the assay with AP-1 is on record as −18.
Taken in the same sequence, the figures for `CC(=O)Nc1ccc(-c2cc(-c3nc4ccccc4c(=O)n3-c3cccc(C)c3)sc2N2CCOCC2)cc1` [Example 286, N-{4-[2-Morpholin-4-yl-5-(4-oxo-3-m-tolyl-3-,4-dihydro-quinazolin-2-yl)-thiophene-3-yl]-phenyl}-acetamide] were 35, 52% and 13.
In general, inhibition refers to the change of the read-out against control, counted positive when it falls. For the compound `Cc1cccc(-n2c(-c3cc(-c4ccncc4)c(N4CCOCC4)s3)nc3ccccc3c2=O)c1` [Example 289, 2-(5-Morpholin-4-yl-4-pyridin-4-yl-thiophen-2-yl)-3-m-tolyl-3H-quinazolin-4-one], the inhibition at 1 µM in the assay on NF-κB was determined as 42%; with AP-1 it was 35%. Besides, the inhibition in vivo at 50 mg/kg in the assay with carageenan-induced edema stood at 30%.
The like results for `COc1ccccc1-n1c(-c2cc(-c3ccc(S(C)(=O)=O)cc3)c(N3CCOCC3)s2)nc2ccccc2c1=O` [Example 297, 2-[4-(4-Methanesulphonyl-phenyl)-5-morpholin-4-yl-thiophen-2-yl]-3-(2-methoxy-phenyl)-3H-quinazolin-4-one] were, in that order, 55%, 33% and 63%.
For the compound `COc1cccc(-n2c(-c3cc(-c4ccc(S(C)(=O)=O)cc4)c(N4CCOCC4)s3)nc3ccccc3c2=O)c1` [Example 300, 2-[4-(4-Methanesulphonyl-phenyl)-5-morpholin-4-yl-thiophen-2-yl]-3-(3-methoxy-phenyl)-3H-quinazolin-4-one], the inhibition at 1 µM is 20% in the assay with NF-κB and -4% in the assay on AP-1. Further, the inhibition in vivo at 50 mg/kg in the assay on carageenan-induced edema is 48%.
The like results for `COc1ccc(-n2c(-c3cc(-c4ccc(S(C)(=O)=O)cc4)c(N4CCOCC4)s3)nc3ccccc3c2=O)cc1` [Example 303, 2-[4-(4-Methanesulphonyl-phenyl)-5-morpholin-4-yl-thiophen-2-yl]-3-(4-methoxy-phenyl)-3H-quinazolin-4-one] were, in that order, 60%, 10% and 53%.
Taken in the same sequence, the figures for `O=c1c2ccccc2nc(-c2cc(-c3ccncc3)c(N3CCOCC3)s2)n1-c1ccccc1Cl` [Example 308, 3-(2-Chloro-phenyl)-2-(5-morpholin-4-yl-4-pyridin-4-yl-thiophen-2-yl)-3H-quinazolin-4-one] were 80%, 35% and 43%.
Turning to `O=c1c2ccccc2nc(-c2cc(-c3ccccc3)c(N3CCOCC3)s2)n1-c1ccc(Cl)cc1` [Example 309, 3-(4-Chloro-phenyl)-2-(5-morpholin-4-yl-4-phenyl-thiophen-2-yl)-3H-quinazolin-4-one], the values for the inhibition at 1 µM in the assay with NF-κB and in the assay on AP-1 were 0% and 2%, respectively. In addition, the inhibition in vivo at 50 mg/kg with carageenan-induced edema worked out at 66%.
In the case of `O=c1c2ccccc2nc(-c2cc(-c3ccc(Cl)cc3)c(N3CCOCC3)s2)n1-c1ccc(Cl)cc1` [Example 310, 2-[4-(4-Chloro-phenyl)-5-morpholin-4-yl-thiophene-2-yl]-3-(4-chloro-phenyl)-3H-quinazolin-4-one], the inhibition at 1 µM in the assay with NF-κB was 0%; with AP-1, 14%. In addition, in the assay with carageenan-induced edema, the inhibition in vivo at 50 mg/kg was 60%.
`CC(=O)Nc1ccc(-c2cc(-c3nc4ccccc4c(=O)n3-c3ccc(Cl)cc3)sc2N2CCOCC2)cc1` [Example 311]: the “NFkB inhibition @ 1 uM” value with NF-κB is reported as 0. Further, the “% Protection P” value in the assay with carageenan-induced edema was 28%. Also, the “AP-1 inhibition @ 1 uM” value in the assay with AP-1 turned out to be 17.
On to `CS(=O)(=O)c1ccc(-c2cc(-c3nc4ccccc4c(=O)n3-c3ccc(Cl)cc3)sc2N2CCOCC2)cc1` [Example 312, 2-[4-(4-Methanesulphonyl-phenyl)-5-morpholin-4-yl-thiophen-2-yl]-3-(4-chloro-phenyl)-3H-quinazolin-4-one], for which the figures for the inhibition at 1 µM with NF-κB and in the assay on AP-1 were 0% and 7%, respectively. Besides, the inhibition in vivo at 50 mg/kg with carageenan-induced edema is 57%.
The like results for `O=c1c2ccccc2nc(-c2cc(-c3ccncc3)c(N3CCOCC3)s2)n1-c1ccc(Cl)cc1` [Example 313, 3-(4-Chloro-phenyl)-2-(5-morpholin-4-yl-4-pyridin-4-yl-thiophen-2-yl)-3H-quinazolin-4-one] were, in that order, 68%, 32% and 52%.
For `CC(=O)c1ccc(-n2c(-c3cc(-c4ccccc4)c(N4CCOCC4)s3)nc3ccccc3c2=O)cc1` [Example 314], the “NFkB inhibition @ 1 uM” value in the assay with NF-κB was 0. Also, the “% Protection P” value with carageenan-induced edema turned out to be 36%. Moreover, the “AP-1 inhibition @ 1 uM” value in the assay on AP-1 is listed as 25.
Take `CC(=O)c1ccc(-c2cc(-c3nc4ccccc4c(=O)n3-c3ccc(Cl)cc3)sc2N2CCOCC2)cc1` [Example 315, 2-[4-(4-Acetyl-phenyl)-5-morpholin-4-yl-thiophene-2-yl]-3-(4-chloro-phenyl)-3H-quinazolin-4-one]: the inhibition at 1 µM in the assay on NF-κB came to 0%; in the assay on AP-1, 7%. Further, the inhibition in vivo at 50 mg/kg in the assay on carageenan-induced edema was 51%.
The like results for `CC(=O)c1ccc(-n2c(-c3cc(-c4ccc(S(C)(=O)=O)cc4)c(N4CCOCC4)s3)nc3ccccc3c2=O)cc1` [Example 317, 2-[4-(4-Methanesulphonyl-phenyl)-5-morpholin-4-yl-thiophen-2-yl]-3-(4-acetyl-phenyl)-3H-quinazolin-4-one] were, in that order, 46%, 31% and 73%.
The like results for `CC(=O)c1ccc(-n2c(-c3cc(-c4ccncc4)c(N4CCOCC4)s3)nc3ccccc3c2=O)cc1` [Example 319, 3-(4-acetyl-phenyl)-2-(5-morpholin-4-yl-4-pyridin-4-yl-thiophen-2-yl)-3Hquinazolin-4-one] were, in that order, 66%, 84% and 81%.
Taken in the same sequence, the figures for `Cc1c(OCC(F)(F)F)ccnc1-c1sc(Nc2ccccc2)nc1N` [Example 331, 5-[3-Methyl-4-(2,2,2-trifluoro-ethoxy)-pyridin-2-yl]-N2-phenyl-thiazole-2,4-diamine] were -10.6%, 27.4% and 62.3%.
For `COc1ccc(C(=O)c2sc(Nc3ccc(Cl)cc3)nc2N)cc1` [Example 332, [4-Amino-2-(4-chloro-phenylamino)-thiazol-5-yl]-(4-methoxy-phenyl)-methanone], the inhibition at 1 µM with NF-κB is 0.13%; in the assay with AP-1, -32.2%. Also, the inhibition in vivo at 50 mg/kg in the assay on carageenan-induced edema was found to be 36%.
The like results for `Nc1nc(Nc2ccc(Cl)cc2)sc1C(=O)c1cccnc1` [Example 338, (4-Amino-2-(4-chlorophenylamino)-thiazol-5-yl)-pyridin-3-yl-methanone] were, in that order, -84.1%, -89.1% and 25.8%.
The like results for `Nc1nc(Nc2ccc(Cl)cc2)sc1C(=O)c1ccccn1` [Example 340, [4-Amino-2-(4-chloro-phenylamino)-thiazol-5-yl]-pyridin-2-yl-methanone] were, in that order, -18.2%, 57.3% and 34%.
With `COc1ccc(Nc2nc(N)c(C(=O)c3ccc(C)cc3)s2)cc1` [Example 344, ([4-Amino-2-(4-methoxy-phenylamino)-thiazol-5-yl]-p-tolyl-methanone)], the inhibition at 1 µM is 49% in the assay with NF-κB and 70.3% with AP-1. Also, the inhibition in vivo at 50 mg/kg in the assay on carageenan-induced edema is 79.8%.
Regarding `COc1ccc(Nc2nc(N)c(C(=O)c3ccc(Cl)cc3Cl)s2)cc1` [Example 346, ([4-Amino-2-(4-methoxy-phenylamino)-thiazol-5-yl]-(2,4-dichloro-phenyl)-methanone)], the inhibition at 1 µM is -4.13% in the assay on NF-κB and 64.6% in the assay with AP-1. Besides, the inhibition in vivo at 50 mg/kg with carageenan-induced edema amounted to 28.3%.
With `COc1ccc(Nc2nc(N)c(C(=O)c3cccnc3)s2)cc1` [Example 349, ([4-Amino-2-(4-methoxy-phenylamino)-thiazol-5-yl]-pyridin-3-yl-methanone)], the values for the inhibition at 1 µM in the assay on NF-κB and with AP-1 were -35.9% and 51.5%, respectively. For the same compound, the inhibition in vivo at 50 mg/kg with carageenan-induced edema was determined as 18.2%.
The like results for `COc1ccc(Nc2nc(N)c(C(=O)c3ccccn3)s2)cc1` [Example 351, ([4-Amino-2-(4-methoxy-phenylamino)-thiazol-5-yl]-pyridin-2-yl-methanone)] were, in that order, -35.9%, 51.5% and 27%.
The like results for `COc1ccc(Nc2nc(N)c(-c3nccc(OCC(F)(F)F)c3C)s2)cc1` [Example 353, (N2-(4-Methoxy-phenyl)-5-[3-Methyl-4-(2,2,2-trifluoro-ethoxy)-pyridin-2-yl]-thiazole-2,4-diamine)] were, in that order, 59.1%, 62% and 82.5%.
